The experiment concerns HCT116 colorectal cancer cells. Briefly: Cisplatin sensitization assay (96 h cell viability MTS).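 Also: Test-compound concentration that lowers the Cisplatin IC50 by a set fold.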 In kind it is cell-based. As to conditions: compound and Cisplatin added simultaneously, Cisplatin sensitization value. Put shortly: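 Viability read by MTS (1 h at 37° C) after 96 h co-exposure at 37° C, 5% CO2. Test compound and cisplatin were dosed simultaneously in a full concentration matrix, each 2-fold serially diluted from 10 μM final; sensitization values binned in μM.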

As to `CN(C)CCCN(C)C(=O)C1CCN(c2c(F)cncc2NC(=O)c2c(N)nn3cc(F)cnc23)CC1` [I-G-16, 2-amino-N-(4-(4-((3-(dimethylamino)propyl)(methyl)carbamoyl)piperidin-1-yl)-5-fluoropyridin-3-yl)-6-fluoropyrazolo[1,5-a]pyrimidine-3-carboxamide], the “Cisplatin Sensitization Assay” value was “+++ (Cisplatin sensitization value of <0.02 μM)”. For the molecule `CNCCCN(C)C(=O)C1CCN(c2c(F)cncc2NC(=O)c2c(N)nn3cc(F)cnc23)CC1` [I-G-17], the “Cisplatin Sensitization Assay” value is listed as “+ (Cisplatin sensitization value>0.2 μM but <5 μM)”. Take `CN1CC2CN(C(=O)C3CCN(c4c(F)cncc4NC(=O)c4c(N)nn5cc(F)cnc45)CC3)CC2C1` (stereo not shown) [I-G-18, 2-amino-6-fluoro-N-(5-fluoro-4-(4-(5-methyloctahydropyrrolo[3,4-c]pyrrole-2-carbonyl)piperidin-1-yl)pyridin-3-yl)pyrazolo[1,5-a]pyrimidine-3-carboxamide]: the “Cisplatin Sensitization Assay” value was “+++ (Cisplatin sensitization value of <0.02 μM)”. On to `CC(C)(C)NC(=O)C1CCN(c2c(F)cncc2NC(=O)c2c(N)nn3cc(F)cnc23)CC1` [I-G-19, 2-amino-N-(4-(4-(tert-butylcarbamoyl)piperidin-1-yl)-5-fluoropyridin-3-yl)-6-fluoropyrazolo[1,5-a]pyrimidine-3-carboxamide], for which the “Cisplatin Sensitization Assay” value is “++ (Cisplatin sensitization value>0.02 μM but <0.2 μM)”. As to `CN1CCC(NC(=O)C2CCN(c3c(F)cncc3NC(=O)c3c(N)nn4cc(F)cnc34)CC2)CC1` [I-G-20, 2-amino-6-fluoro-N-(5-fluoro-4-(4-((1-methylpiperidin-4-yl)carbamoyl)piperidin-1-yl)pyridin-3-yl)pyrazolo[1,5-a]pyrimidine-3-carboxamide], the “Cisplatin Sensitization Assay” value is reported as “+ (Cisplatin sensitization value>0.2 μM but <5 μM)”. `COC1CN(C(=O)C2CCN(c3c(F)cncc3NC(=O)c3c(N)nn4cc(F)cnc34)CC2)C1` [I-G-21, 2-amino-6-fluoro-N-(5-fluoro-4-(4-(3-methoxyazetidine-1-carbonyl)piperidin-1-yl)pyridin-3-yl)pyrazolo[1,5-a]pyrimidine-3-carboxamide]: the “Cisplatin Sensitization Assay” value was “+++ (Cisplatin sensitization value of <0.02 μM)”. Turning to `CN(C)C1CN(C(=O)C2CCN(c3c(F)cncc3NC(=O)c3c(N)nn4cc(F)cnc34)CC2)C1` [I-G-22, 2-amino-N-(4-(4-(3-(dimethylamino)azetidine-1-carbonyl)piperidin-1-yl)-5-fluoropyridin-3-yl)-6-fluoropyrazolo[1,5-a]pyrimidine-3-carboxamide], the “Cisplatin Sensitization Assay” value is recorded as “+++ (Cisplatin sensitization value of <0.02 μM)”. The same measure for `CN1CC(NC(=O)C2CCN(c3c(F)cncc3NC(=O)c3c(N)nn4cc(F)cnc34)CC2)C1` [I-G-23, 2-amino-6-fluoro-N-(5-fluoro-4-(4-((1-methylazetidin-3-yl)carbamoyl)piperidin-1-yl)pyridin-3-yl)pyrazolo[1,5-a]pyrimidine-3-carboxamide]: “+++ (Cisplatin sensitization value of <0.02 μM)”; for `CN1CCC(NC(=O)C2CCN(c3c(F)cncc3NC(=O)c3c(N)nn4cc(F)cnc34)CC2)C1` (stereo not shown) [I-G-24, 2-amino-6-fluoro-N-(5-fluoro-4-(4-((1-methylpyrrolidin-3-yl)carbamoyl)piperidin-1-yl)pyridin-3-yl)pyrazolo[1,5-a]pyrimidine-3-carboxamide]: “+++ (Cisplatin sensitization value of <0.02 μM)”; for `CN1CCN(C(=O)C2(C#N)CCN(c3c(F)cncc3NC(=O)c3c(N)nn4cc(F)cnc34)CC2)CC1` [I-G-25, 2-amino-N-(4-(4-cyano-4-(4-methylpiperazine-1-carbonyl)piperidin-1-yl)-5-fluoropyridin-3-yl)-6-fluoropyrazolo[1,5-a]pyrimidine-3-carboxamide]: “+++ (Cisplatin sensitization value of <0.02 μM)”.

Values taken from patent publication US11370798B2 (Vertex Pharmaceuticals Incorporated, priority 2012, dated 2022).
